In patent publication US11447475B2, “Isoxazole N-linked carbamoyl cyclohexyl acids as LPA antagonists” (BRISTOL-MYERS SQUIBB COMPANY, priority 2017, dated 2022) one finds IC50 data, which are given here for 46 compounds.

Each structure is given as a SMILES string.

The first assay deals with T1, human LPA1 (Homo sapiens, UniProt Q92633).
T1 construct: expressed in transfected cells; host or cells: Chinese hamster ovary (CHO) cells
T1 sequence (Q92633 whole entry): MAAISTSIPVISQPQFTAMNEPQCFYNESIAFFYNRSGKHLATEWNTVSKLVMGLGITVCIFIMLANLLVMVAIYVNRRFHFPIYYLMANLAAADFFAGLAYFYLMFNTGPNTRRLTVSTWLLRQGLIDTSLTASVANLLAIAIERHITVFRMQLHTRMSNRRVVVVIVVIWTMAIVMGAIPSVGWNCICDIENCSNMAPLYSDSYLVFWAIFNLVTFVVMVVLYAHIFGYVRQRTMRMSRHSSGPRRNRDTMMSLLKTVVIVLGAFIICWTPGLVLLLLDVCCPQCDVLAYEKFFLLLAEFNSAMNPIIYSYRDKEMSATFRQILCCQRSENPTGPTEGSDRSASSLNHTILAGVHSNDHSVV
Description: LPA1 functional antagonist assay (calcium flux). The format is cell-based. To be noted: CHO cells overexpressing human LPA1; inhibition of calcium flux induced by 10 nM LPA; read-out: hLPA1 IC50. As for the experimental part:
The effectiveness of compounds of the present invention as LPA1 inhibitors can be determined in an LPA1 functional antagonist assay as follows:
Chinese hamster ovary cells overexpressing human LPA1 were plated overnight (15,000 cells/well) in poly-D-lysine coated 384-well microplates (Greiner bio-one, Cat #781946) in DMEM/F12 medium (Gibco, Cat #11039). Following overnight culture, cells were loaded with calcium indicator dye (AAT Bioquest Inc, Cat #34601) for 30 minutes at 37° C. The cells were then equilibrated to room temperature for 30 minutes before the assay. Test compounds solubilized in DMSO were transferred to 384 well non-binding surface plates (Corning, Cat #3575) using the Labcyte Echo acoustic dispense and diluted with assay buffer [1×HBSS with calcium/magnesium (Gibco Cat #14025-092), 20 mM HEPES (Gibco Cat #15630-080) and 0.1% fatty acid free BSA (Sigma Cat #A9205)] to a final concentration of 0.5% DMSO. Diluted compounds were added to the cells by FDSS6000 (Hamamatsu) at final concentrations ranging from 0.08 nM to 5 μM. and were then incubated for 20 min at room temperature at which time LPA (Avanti Polar Lipids Cat #857130C) was added at final concentrations of 10 nM to stimulate the cells. […] IC50 values were determined by fitting data to a 4-parameter logistic equation (GraphPad Prism, San Diego Calif.).
In the case of `Cc1noc(-c2ccc(O[C@H]3CCC[C@H](C(=O)O)C3)cn2)c1CNC(=O)OCc1ccc(F)cc1` [Example 1, (1S,3S)-3-((6-(4-(((((4-Fluorobenzyl)oxy)carbonyl)amino)methyl)-3-methylisoxazol-5-yl) Pyridin-3-yl)oxy)cyclohexanecarboxylic Acid], the IC50 was found to be 9 nM.

On to `Cc1noc(-c2ccc(O[C@H]3CCC[C@H](C(=O)O)C3)cn2)c1CNC(=O)OCc1cccc(F)c1` [Example 3], for which the IC50 is 5 nM.

For the compound `Cc1noc(-c2ccc(O[C@H]3CCC[C@H](C(=O)O)C3)cn2)c1CNC(=O)OCc1cc(F)cc(F)c1` [Example 37, (1S,3S)-3-((6-(4-(((((3,5-difluorobenzyl)oxy)carbonyl)amino)methyl)-3-methylisoxazol-5-yl)pyridin-3-yl)oxy)cyclohexane-1-carboxylic Acid], the IC50 came to 27 nM.

Still in this assay, the particulars now being: read-out: hLPA1 IC50.
As for `Cc1noc(-c2ccc(O[C@H]3CCCC(C(=O)O)C3)cc2)c1CNC(=O)OCC1CC1C` (mixture of isomers) [Example 14], the IC50 was 97 nM.

Turning to `Cc1noc(-c2ccc(O[C@@H]3CCC[C@@H](C(=O)O)C3)cc2)c1CNC(=O)O[C@@H](C)c1ccccc1` (mixture of isomers) [Example 16], the IC50 is 1610 nM.

As for `Cc1noc(-c2ccc(O[C@@H]3CCC[C@@H](C(=O)O)C3)cc2)c1CNC(=O)O[C@H](C)c1ccccc1` (mixture of isomers) [Example 17], the IC50 came out at 293 nM.

On to `CCC(C)COC(=O)NCc1c(C)noc1-c1ccc(O[C@@H]2CCC[C@@H](C(=O)O)C2)cc1` (mixture of isomers) [Example 25], for which the IC50 was found to be 96 nM.

Take `Cc1noc(-c2ccc(O[C@@H]3CCC[C@@H](C(=O)O)C3)cc2)c1CNC(=O)OC(C)C1CC1` (mixture of isomers) [Example 27]: the IC50 was 1140 nM.

Consider `Cc1noc(-c2ccc(O[C@@H]3CCC[C@@H](C(=O)O)C3)cc2)c1CNC(=O)OCc1cccc(F)c1` (racemic) [Example 21], for which the IC50 amounted to 257 nM.

Consider `Cc1noc(-c2ccc(O[C@@H]3CCC[C@@H](C(=O)O)C3)cc2)c1CNC(=O)OCC(C)C` (racemic) [Example 22], for which the IC50 was 2130 nM.

On to `CCCCOC(=O)NCc1c(C)noc1-c1ccc(O[C@@H]2CCC[C@@H](C(=O)O)C2)cc1` (racemic) [Example 23], for which the half-maximal inhibitory concentration (IC50) was found to be 319 nM.

Turning to `Cc1noc(-c2ccc(O[C@@H]3CCC[C@@H](C(=O)O)C3)cc2)c1CNC(=O)OCCC(C)C` (racemic) [Example 24], the IC50 was determined as 63 nM.

Take `Cc1noc(-c2ccc(O[C@@H]3CCC[C@@H](C(=O)O)C3)cc2)c1CNC(=O)OCC(C)(C)C` (racemic) [Example 26]: the half-inhibitory concentration (IC50) is 334 nM.

Turning to `Cc1noc(-c2ccc(O[C@@H]3CCC[C@@H](C(=O)O)C3)cc2)c1CNC(=O)OCC1CCC1` (racemic) [Example 29], the IC50 was found to be 407 nM.

In the case of `Cc1noc(-c2ccc(O[C@H]3CCC[C@@H](C(=O)O)C3)cc2)c1NC(=O)O[C@H](C)C1CC1` (racemic) [Example 33], the IC50 worked out at 84 nM.

`Cc1noc(-c2cnc(O[C@H]3CCC[C@H](C(=O)O)C3)cn2)c1CNC(=O)OCc1ccccc1` (racemic) [Example 52, (±)-Trans-3-((5-(4-((((benzyloxy)carbonyl)amino)methyl)-3-methyl-isoxazol-5-yl)pyrazin-2-yl)oxy)cyclohexane-1-carboxylic Acid]: the half-inhibitory concentration (IC50) came out at 111 nM.

For `Cc1noc(-c2ccc(O[C@H]3CCC[C@H](C(=O)O)C3)cc2)c1NC(=O)O[C@H](C)C1CC1` (single isomer, unassigned) [Example 32], the IC50 came to 84 nM.

As for `Cc1noc(-c2ccc(O[C@H]3CCC[C@H](C(=O)O)C3)cn2)c1CNC(=O)OCc1ccccc1` (single isomer, unassigned) [Example 56], the IC50 worked out at 4 nM.

Turning to `Cc1noc(-c2ccc(O[C@@H]3CCC[C@@H](C(=O)O)C3)cn2)c1CNC(=O)OCc1ccccc1` (single isomer, unassigned) [Example 57], the IC50 stood at 49 nM.

As to `Cc1noc(-c2ccc(O[C@H]3CCC[C@H](C(=O)O)C3)cn2)c1CNC(=O)OCc1cccc(Cl)c1` [Example 4], the IC50 was 30 nM.

For `Cc1cccc(COC(=O)NCc2c(C)noc2-c2ccc(O[C@H]3CCC[C@H](C(=O)O)C3)cn2)c1` [Example 5], the IC50 came out at 25 nM.

For `Cc1noc(-c2ccc(O[C@H]3CCC[C@H](C(=O)O)C3)cn2)c1CNC(=O)OCCC(C)(C)C` [Example 6], the IC50 came out at 7 nM.

As to `Cc1noc(-c2ccc(O[C@H]3CCC[C@H](C(=O)O)C3)cn2)c1CNC(=O)OCC1CCC1` [Example 7], the IC50 turned out to be 16 nM.

In the case of `Cc1noc(-c2ccc(O[C@H]3CCC[C@H](C(=O)O)C3)cn2)c1CNC(=O)OCC1CC(C)(C)C1` [Example 8], the IC50 amounted to 5.5 nM.

`Cc1noc(-c2ccc(O[C@H]3CCC[C@H](C(=O)O)C3)cc2)c1CNC(=O)OCc1cccc(Cl)c1` [Example 11]: the IC50 stood at 197 nM.

Turning to `Cc1noc(-c2ccc(O[C@H]3CCC[C@H](C(=O)O)C3)cc2)c1CNC(=O)OCc1ccc(Cl)cc1` [Example 12], the IC50 came out at 2.77 nM.

For `Cc1noc(-c2ccc(O[C@H]3CCC[C@H](C(=O)O)C3)cc2)c1CN(C)C(=O)OCc1ccccc1` [Example 13], the 50% inhibitory concentration (IC50) amounted to 63 nM.

For `Cc1noc(-c2ccc(O[C@@H]3CCC[C@@H](C(=O)O)C3)cc2)c1CNC(=O)OCc1ccc(F)cc1` [Example 18], the IC50 worked out at 159 nM.

For the compound `Cc1noc(-c2ccc(O[C@@H]3CCC[C@@H](C(=O)O)C3)cc2)c1CNC(=O)OCc1ccccc1F` [Example 19], the 50% inhibitory concentration (IC50) amounted to 152 nM.

On to `Cc1noc(-c2ccc(O[C@@H]3CCC[C@@H](C(=O)O)C3)cc2)c1CNC(=O)OCc1ccccc1Cl` [Example 20], for which the IC50 turned out to be 244 nM.

With `Cc1noc(-c2ccc(O[C@@H]3CCC[C@@H](C(=O)O)C3)cc2)c1CNC(=O)OCCC1CC1` [Example 28], the IC50 was 263 nM.

With `Cc1noc(-c2ccc(O[C@H]3CCC[C@H](C(=O)O)C3)cn2)c1NC(=O)O[C@H](C)C1CC1` [Example 34, (1S,3S)-3-((6-(4-((((R)-1-cyclopropylethoxy)carbonyl)amino)-3-methylisoxazol-5-yl)pyridin-3-yl)oxy)cyclohexane-1-carboxylic Acid], the IC50 worked out at 30 nM.

Take `Cc1noc(-c2ccc(O[C@H]3CCC[C@H](C(=O)O)C3)cn2)c1CNC(=O)NCc1ccccc1` [Example 35, (1S,3S)-3-((6-(4-((3-benzylureido)methyl)-3-methylisoxazol-5-yl)pyridin-3-yl)oxy)cyclohexane-1-carboxylic Acid]: the IC50 was found to be 229 nM.

In the case of `CCCCCCOC(=O)NCc1c(C)noc1-c1ccc(O[C@H]2CCC[C@H](C(=O)O)C2)cn1` [Example 36, (1S,3S)-3-((6-(4-((((hexyloxy)carbonyl)amino)methyl)-3-methylisoxazol-5-yl)pyridin-3-yl)oxy)cyclohexane-1-carboxylic Acid], the IC50 was 46 nM.

On to `Cc1noc(-c2ccc(O[C@H]3CCC[C@H](C(=O)O)C3)cn2)c1CNC(=O)OC1CCCC1` [Example 38], for which the IC50 came out at 63 nM.

With `Cc1nc(-c2onc(C)c2CNC(=O)OCC(C)C)ccc1O[C@H]1CCC[C@H](C(=O)O)C1` [Example 39], the IC50 amounted to 37 nM.

In the case of `Cc1nc(-c2onc(C)c2CN(C)C(=O)OCC(C)C)ccc1O[C@H]1CCC[C@H](C(=O)O)C1` [Example 40], the half-inhibitory concentration (IC50) is 34 nM.

For the compound `CCCOC(=O)NCc1c(C)noc1-c1ccc(O[C@H]2CCC[C@H](C(=O)O)C2)c(C)n1` [Example 41], the IC50 turned out to be 20 nM.

In the case of `CCCCOC(=O)NCc1c(C)noc1-c1ccc(O[C@H]2CCC[C@H](C(=O)O)C2)c(C)n1` [Example 42], the concentration for half-maximal inhibition (IC50) worked out at 8 nM.

On to `CCCCCOC(=O)NCc1c(C)noc1-c1ccc(O[C@H]2CCC[C@H](C(=O)O)C2)c(C)n1` [Example 43], for which the IC50 was determined as 8 nM.

As for `CCCCCCOC(=O)NCc1c(C)noc1-c1ccc(O[C@H]2CCC[C@H](C(=O)O)C2)c(C)n1` [Example 44], the IC50 came out at 6 nM.

In the case of `COCCOC(=O)NCc1c(C)noc1-c1ccc(O[C@H]2CCC[C@H](C(=O)O)C2)c(C)n1` [Example 46], the IC50 was found to be 275 nM.

In the case of `Cc1nc(-c2onc(C)c2CNC(=O)OC(C)C)ccc1O[C@H]1CCC[C@H](C(=O)O)C1` [Example 47], the IC50 came to 30 nM.

As for `Cc1nc(-c2onc(C)c2CNC(=O)OCc2ccccc2)ccc1O[C@H]1CCC[C@H](C(=O)O)C1` [Example 48], the half-inhibitory concentration (IC50) was 5 nM.

Consider `Cc1nc(-c2onc(C)c2CN(C)C(=O)OCc2ccccc2)ccc1O[C@H]1CCC[C@H](C(=O)O)C1` [Example 49, (1S,3S)-3-((6-(4-((((Benzyloxy)carbonyl)(methyl)amino)methyl)-3-methyl-isoxazol-5-yl)-2-methylpyridin-3-yl)oxy)cyclohexanecarboxylic Acid], for which the IC50 was found to be 6 nM.

With `Cc1nc(-c2onc(C)c2CNC(=O)OC(C)(C)C)ccc1O[C@H]1CCC[C@H](C(=O)O)C1` [Example 50, (1S,3S)-3-((6-(4-(((tert-butoxycarbonyl)amino)methyl)-3-methylisoxazol-5-yl)-2-methylpyridin-3-yl)oxy)cyclohexane-1-carboxylic Acid], the IC50 is 44 nM.
